Measured values from publication PMC9822369, “Synthesis, Biological Evaluation, DNA Binding, and Molecular Docking of Hybrid 4,6-Dihydrazone Pyrimidine Derivatives as Antitumor Agents” (Molecules, 2022).

Assays:
BGC-823 cells [1] = experiment: MTT cytotoxicity assay, BGC-823 cells; format: cell-based; conditions: Homo sapiens, 48 h, read-out: IC50 against BGC-823
Description: (§1) The MTT method is often used to detect the cytotoxicity of compounds in vitro [64]. The cytotoxicity of 10a–10f was evaluated by MTT assay against BGC-823, BEL-7402, MCF-7, and A549 tumor cells. HL-7702 was selected to evaluate the safety of 10a–10f against human normal cells. 5-FU was also evaluated as a positive control. The well-grown cells were inoculated in 96-well plates at a density of 3000 cells/well and incubated in 37 °C for 24 h. The negative control group, blank control group, and administration group were set up. The cells were incubated with a gradient concentration (1.25, 2.5, 5, 10, and 20 μg/mL) of samples or 5-FU for 48 h. Then, 20 μL MTT solution (5 mg/mL) was added to each well. After the cells were incubated for 4 h, 150 μL DMSO was added to each well before testing. The absorbance was measured at 570 nm with a microplate reader. The inhibition rate and final IC50 values were calculated according to the following formula. The values shown are the average of at least three parallel trials. Inhibition rate (%) =1 − (ODsample − ODblank)/(ODnegative − ODblank) × 100%.

BEL-7402 cells = experiment: MTT cytotoxicity assay, BEL-7402 cells; format: cell-based; conditions: Homo sapiens, 48 h, read-out: IC50 against BEL-7402
Description: as §1

MCF-7 cells = experiment: MTT cytotoxicity assay, MCF-7 cells; format: cell-based; conditions: Homo sapiens, MCF7, 48 h, read-out: IC50 against MCF-7
Description: as §1

A549 cells = experiment: MTT cytotoxicity assay, A549 cells; format: cell-based; conditions: Homo sapiens, 48 h, read-out: IC50 against A549
Description: as §1

HL-7702 cells = experiment: MTT cytotoxicity assay, normal cells HL-7702; format: cell-based; conditions: L02, 48 h, normal human hepatocytes, read-out: IC50 against HL-7702
Description: as §1

CT-DNA [2] = experiment: UV/Vis absorbance titration with CT-DNA; format: binding; conditions: hyperchromic effects at 205 nm and 260 nm, no wavelength shift
Description: The binding patterns of 10a and 10f with CT-DNA were measured by UV/Vis spectroscopy in Tris-HCl buffer (0.05 M Tris-HCl/0.1 M NaCl, pH 7.4). The stock solution concentrations of both 10a and 10f in DMSO were 10^−3 M. CT-DNA was dissolved in Tris-HCl buffer and stored at 4 °C for use. The stock solution concentration of CT-DNA was determined by UV/Vis absorbance at 260 nm with the extinction coefficient 6600 M^−1·cm^−1 [67]. Tris-HCl buffer was used as a blank to make preliminary adjustments. Absorbance titration experiments were performed at room temperature with the concentrations of 10a and 10f at 0.1 µM, varying the concentrations of CT-DNA (0.2, 0.4, 0.6, 0.8, and 1 µM). The solution was allowed to equilibrate for 2–3 h before measurement. UV/Vis absorption spectra were recorded in the range of 200–400 nm. The binding constant was calculated according to the following equation [54]: […]=[DNA]/(εb−εf)+1/Kb(εb−εf), where εa corresponds to the observed extinction coefficient (A/[DNA]), εf corresponds to the extinction coefficient of the free compound, and εb is the extinction coefficient of the compound when fully bound to CT-DNA. [DNA] is the concentration of CT-DNA added to the compound. The Kb values of 10a and 10f were calculated from the slope to intercept ratio, which was obtained by plotting a graph of [DNA]/(εa − εf) versus [DNA].

BGC-823 cells [3] = experiment: AO/EB double staining; format: cell-based, Human; conditions: BGC-823, 0.5 IC50, IC50, 1.5 IC50, 24 h
Description: AO (500 μL, 1 mg/mL) and EB (500 μL, 1 mg/mL) were mixed, and then 4 mL PBS was added to the above solution to form AO/EB dye […]. AO/EB dye (100 μL) was added to each well. After incubating for 3–5 min and washing twice with cold PBS, BGC-823 cells were observed immediately under an inverted fluorescence microscope.

CT-DNA [4] = experiment: Circular dichroism spectra of CT-DNA; format: binding; conditions: CT-DNA 600 μM, compound 100 μM, Tris-HCl pH 7.4
Description: The CD spectra of CT-DNA in the absence and presence of 10a or 10f were measured after equilibrating for 1 h in a 1 mm diameter quartz colorimeter at room temperature. The concentration of CT-DNA was fixed at 600 μM in each sample. Both 10a and 10f were added to the above CT-DNA solution at a concentration of 100 μM, respectively. The scanning speed was 200 nm/min. The spectra were scanned on an average of six times in the range of 200–400 nm. All measurements were performed in 0.05 M Tris-HCl buffer (pH 7.4).

BGC-823 cells [5] = experiment: ROS detection (DCFH-DA) by flow cytometry; format: cell-based, Human; conditions: 24 h
Description: According to the instructions of ROS Detection Kit (Solarbio, Beijing, China), in situ probe loading was adopted. ROS intensity changes were determined by inverted fluorescence microscopy and flow cytometry. The whole experiment was carried out under dark conditions.

DNA = test system: DNA; set-up: method as in PMID 3427013; conditions: classical intercalator; cited from earlier work
[6] = molecular target: epidermal growth factor receptor kinase; set-up: method as in PMID 30633509; conditions: dual epidermal growth factor receptor kinase and microtubule inhibitor; cited from earlier work

Row | SMILES | IC50 (BGC-823 cells [1]) | IC50 (BEL-7402 cells) | IC50 (MCF-7 cells) | IC50 (A549 cells) | IC50 (HL-7702 cells) | interaction mode with DNA (absorption spectra) (CT-DNA [2]) | apoptosis by AO/EB double staining (morphology) (BGC-823 cells [3]) | change of positive (279 nm) and negative (247 nm) CD bands of CT-DNA (CT-DNA [4]) | ROS fluorescence intensity (DCF) (BGC-823 cells [5]; BGC-823, 4 μM) | ROS fluorescence intensity (DCF) (BGC-823 cells [5]; BGC-823, 8 μM) | binding constant with DNA (DNA) | IC50 [6]
1 | Brc1cccc(/C=N/Nc2cc(N/N=C/c3cccc(Br)n3)ncn2)n1 [Compound 10a, 4,6-Bis(2-((E)-(6-bromopyridin-2-yl)methylene)hydrazinyl)pyrimidine] | 9 ± 0.6 µM | 6.7 ± 0.4 µM | 22.93 ± 0.16 µM | 26.96 ± 0.14 µM | > 100 µM | groove binding and partial intercalation | induce apoptosis of BGC-823 cells in a dose-dependent manner | decreased in intensity |  |  |  | 
2 | Brc1cccc(/C=N/Nc2cc(N/N=C/c3cccc(Br)n3)nc(-c3ccccc3)n2)n1 [Compound 10d, 4,6-Bis(2-((E)-(6-bromopyridin-2-yl)methylene)hydrazinyl)-2-phenylpyrimidine] | 20.8 ± 2.69 µM | 22.5 ± 2.83 µM | 27.6 ± 0.45 µM | 47.1 ± 0.8 µM | > 100 µM |  |  |  |  |  |  | 
3 | Cc1cccc(/C=N/Nc2cc(N/N=C/c3cccc(C)n3)nc(-c3ccccc3)n2)n1 [Compound 10f, 4,6-Bis(2-((E)-(6-methylpyridin-2-yl)methylene)hydrazinyl)-2-phenylpyrimidine] | 7.89 ± 0.78 µM | 7.66 ± 0.55 µM | 10.6 ± 0.14 µM | 37.7 ± 1.37 µM | > 100 µM | groove binding and partial intercalation | induce apoptosis of BGC-823 cells in a dose-dependent manner | decreased in intensity | 27.6 | 32.2 |  | 
4 | Cc1cccc(/C=N/Nc2cc(N/N=C/c3cccc(C)n3)ncn2)n1 [Compound 10c, 4,6-Bis(2-((E)-(6-methylpyridin-2-yl)methylene)hydrazinyl)pyrimidine] | 26.21 ± 0.1 µM | 29.5 ± 0.61 µM | 24 ± 0.43 µM | 37.3 ± 2.3 µM | 60.51 ± 0.21 µM |  |  |  |  |  |  | 
5 | O=c1[nH]cc(F)c(=O)[nH]1 [Compound 5-FU, 5-fluorouracil, reference compound] | 15.18 ± 0.05 µM | 15.81 ± 0.01 µM | 11.3 ± 0.78 µM | 11.8 ± 0.89 µM | 20.83 ± 0.05 µM |  |  |  |  |  |  | 
6 | CC[n+]1c(-c2ccccc2)c2cc(N)ccc2c2ccc(N)cc21 [EB, Ethidium bromide] |  |  |  |  |  |  |  |  |  |  | ~10^7 M^−1 | 
7 | COc1cc(Nc2ncnc3cc(-c4ccc(C)cc4)sc23)cc(OC)c1OC [Compound 2] |  |  |  |  |  |  |  |  |  |  |  | 0.03 µM
8 | C(=N\Nc1cc(N/N=C/c2ccccn2)ncn1)/c1ccccn1 [Compound 10b, 4,6-Bis(2-((E)-pyridin-2-ylmethylene)hydrazinyl)pyrimidine] | 20.9 ± 0.82 µM | 15 ± 2 µM | 39.8 ± 1.18 µM | 27.3 ± 0.86 µM | 38.4 ± 0.58 µM |  |  |  |  |  |  | 
9 | C(=N\Nc1cc(N/N=C/c2ccccn2)nc(-c2ccccc2)n1)/c1ccccn1 [Compound 10e, 4,6-Bis(2-((E)-pyridin-2-ylmethylene)hydrazinyl)-2-phenylpyrimidine] | 17.7 ± 0.24 µM | 20.2 ± 1.43 µM | 15.7 ± 2 µM | 30.3 ± 0.65 µM | > 100 µM |  |  |  |  |  |  | 
